According to patent US20260256780A1, “COMPOSITIONS FOR INDUCING RAS GTP HYDROLYSIS AND USES THEREOF” (Revolution Medicines, Inc., priority 2023, published 2026):

What was measured:
[1] = system: KRASG12D-mutant cell line AsPC-1; test: Cell viability (CellTiter-Glo) and HSA synergy model, AsPC-1; type: cell-based
Method: (§1) Cell lines were seeded in complete growth media (RPMI-1640 or DMEM with 10% Fetal Bovine Serum and 1% Penicillin/Streptomycin) and allowed to adhere overnight in a 37° C. and 5% CO2 humidified incubator. The following day compounds were added at the indicate concentrations and incubated for a further 5 days. The number of viable cells in each well were assessed with Promega CellTiter-Glo® reagent according to manufacturer instructions. The cell viability was normalized to DMSO controls. The cell viability as a function of compound concentrations were plotted using GraphPad Prism analyzed using the Combenefit software package (Di Veroli G Y, Fornari C, Wang D, Mollard S, Bramhall J L, Richards F M, Jodrell D I. Combenefit: an interactive platform for the analysis and visualization of drug combinations. Bioinformatics. 2016 Sep. 15; 32(18):2866-8. doi: 10.1093/bioinformatics/btw230) to assess the synergy according to the highest single agent (HSA) synergy model (Borisy A A, Elliott P J, Hurst N W, Lee M S, Lehar J, Price E R, Serbedzija G, Zimmermann G R, Foley M A, Stockwell B R, Keith C T. Systematic discovery of multicomponent therapeutics. Proc Natl Acad Sci USA. 2003 Jun. 24; 100(13):7977-82. doi: 10.1073/pnas.1337088100)).
The KRASG12D-mutant cell line AsPC-1 was grown in RPMI-1640 supplemented with 10% fetal bovine serum and 1% penicillin/streptomycin. 2500 cells were seeded in 0.15 mL in the wells of a tissue culture-treated 96-well plate. After overnight incubation, compounds were added at the indicated concentration and incubated for a further 120 hours. Cell viability was assessed with Promega CellTiter Glo reagent, and the relative cell viability was plotted as a function of the concentration of (FIG. 4A and FIG. 4G) MRTX1133 or (FIG. 4D) MRTX-282 in combination with the indicated concentration to Compound A (FIG. 4A and FIG. 4D) or Compound D (FIG. 4G), both strong hydrolyzers. The synergy between (FIG. 4B and FIG. 4H) MRTX1133 or (FIG. 4E) MRTX-282 and Compound A (FIGS. 4B and 4E) or Compound D (FIG. 4H) was assessed by the HAS synergy model. Representative points of synergistic drug combination between (FIG. 4C and FIG. 4I) MRTX1133 or (FIG. 4F) MRTX-282 and Compound A (FIG. 4C and FIG. 4F) or Compound D (FIG. 4I) are highlighted.
The KRASG12D-mutant cell line AsPC-1 was grown in RPMI-1640 supplemented with 10% fetal bovine serum and 1% penicillin/streptomycin. 2000 cells were seeded in 0.15 mL in the wells of a tissue culture-treated 96-well plate. After overnight incubation, compounds were added at the indicated concentration and incubated for a further 120 hours. Cell viability was assessed with Promega CellTiter Glo reagent, and the relative cell viability was plotted as a function of the concentration of pan KRAS-IN-1 in combination with the indicated concentration to Compound D (FIG. 11A) or Compound C (FIG. 11D), both strong hydrolyzers. The synergy between pan KRAS-IN-1 and Compound D (FIG. 11B) or Compound C (FIG. 11E) was assessed by the HAS synergy model. Representative points of synergistic drug combination between pan KRAS-IN-1 and Compound D (FIG. 11C) or Compound C (FIG. 11F).

[2] = system: KRASG12R-mutant cell line PSN1; test: Cell viability (CellTiter-Glo) and HSA synergy model, PSN1; type: cell-based; conditions: in combination with pan KRAS-IN-1, 120 hours
Method: as §1
The KRASG12R-mutant cell line PSN1 was grown in RPMI-1640 supplemented with 10% fetal bovine serum and 1% penicillin/streptomycin. […]

[3] = system: KRASG12V-mutant cell line Capan-2; test: Cell viability (CellTiter-Glo) and HSA synergy model, Capan-2; type: cell-based; conditions: in combination with pan KRAS-IN-1, 120 hours
Method: as §1
The KRASG12V-mutant cell line Capan-2 was grown in RPMI-1640 supplemented with 10% fetal bovine serum and 1% penicillin/streptomycin. […]

[4] = system: RAS wild-type cell line, HaCat; test: Cell viability (CellTiter-Glo) and HSA synergy model, HaCat control; type: cell-based, human
Method: as §1
The KRASG12D-mutant cell line Gp2D was grown in RPMI-16 40 supplemented with 10% fetal bovine serum and 1% penicillin/streptomycin. […]

[5] = system: KRASG12C-mutant cell line H358; test: Cell viability (CellTiter-Glo) and HSA synergy model, H358; type: cell-based; conditions: in combination with pan KRAS-IN-1, 120 hours
Method: as §1
The KRASG12C-mutant cell line H358 was grown in RPMI-1640 supplemented with 10% fetal bovine serum and 1% penicillin/streptomycin. […]

[6] = system: GTP-loaded KRAS proteins (residue 1-169 of KRAS4B); test: RAS GTP hydrolysis rate assay (GTPase-Glo) with cyclophilin A; type: biochemical; conditions: all RAS mutants except those with mutations of the Q61 residue; 10 μM compound, 25 μM cyclophilin A, 37° C.
Method: (§2) The rate of RAS GTP hydrolysis was assayed in the presence of various KRAS mutations. To assess GTP hydrolysis activity, recombinant KRAS proteins (residue 1-169 of KRAS4B) were expressed in E. coli and purified using a TEV protease-cleavable His6-tag and Ni^2+ affinity chromatography. The His6 tag was removed by treatment with TEV protease, and the KRAS protein was isolated by passing through a second Ni^2+ column followed by size exclusion chromatography. The purified KRAS proteins were loaded with GTP by incubation for 2 hours on ice with 2 mM GTP and 10 mM Ethylenediaminetetraacetic Acid, followed by addition of 10 mM MgCl2 and incubation on ice for 1 additional hour. The excess GTP was removed by overnight dialysis against buffer (12.5 mM HEPES, 75 mM NaCl, pH 7.5) at 4° C. The GTP-loaded KRAS protein were flash frozen in liquid nitrogen, then stored at −80° C. until use.
(§3) GTP-loaded KRAS proteins (1 μM) were combined with 25 μM of recombinant human cyclophilin A and 10 μM of compound in reaction buffer (12.5 mM HEPES, 75 mM NaCl, 1 mM MgCl2, 1 mM DTT, 1% DMSO, pH 7.5) pre-warmed to 37° C. At fixed time points, aliquots were removed and quenched by heating to 80° C. to denature the proteins, then centrifuged to pellet the protein precipitate. The supernatant was assessed for GTP levels using Promega GTPase-Glo™ according to manufacturer instructions. The levels of GTP as a function of incubation time were fit to a single phase exponential decay to determine the rate constant for hydrolysis activity.

[7] = target: T1, GTP-loaded KRAS proteins (residue 1-169 of KRAS4B) (Homo sapiens, UniProt P01116, G12V); test: as above; type: biochemical; conditions: bound in tri-complex with cyclophilin A; in some embodiments KRAS^G12V is the isoform used
T1 construct: recombinant KRAS proteins (residue 1-169 of KRAS4B); His6 (TEV protease-cleavable) (cleaved yes); made in house; host or cells: E. coli
Method: as §2, §3

[8] = system: complexes between KRAS proteins and the RAS-binding domain (RBD) of the RAF1 kinase; test: Intracellular RAS-RAF complex reporter assay (nanoBRET) in U2OS cells, multiple KRAS variants; type: cell-based; conditions: 4 hours
Method: A cellular assay was used to measure complexes between KRAS proteins and the RAS-binding domain (RBD) of the RAF1 kinase by nanoluciferase bioluminescence energy transfer (nanoBRET™) U2OS cells were seeded at confluence in the 3 mL of DMEM supplemented with 10% fetal bovine serum and 1% penicillin/streptomycin (approximately 1 million cells per well). The following day, each well was transfected with 50 ng of a plasmid encoding N-terminal nanoluciferase-tagged KRAS4B and 2950 ng of a plasmid encoding a C-terminal HaloTag® RAF1 RBD (residues 51-149) using FuGENE HD reagent according to manufacturer instructions. The following day, each transfected cell pool was transferred to 36 wells of a white 96-well plate in media consistiting of OptiMem phenol-red free supplemented with 4% fetal bovine serum, 1% penicillin/streptomycin, and 100 nM of HaloTag® NanoBRET™ 618 Ligand. The following day, Vivazine™ nanoluciferase substrate and compounds were added at the indicated concentration. After 4 hours of incubation, the emitted light at 460 and 618 nm was measured using a PerkinElmer Envision plate reader. The luminescence intensity at 618 nm relative to 460 nm is proportional to the number of complexes between the KRAS protein and the RBD of RAF1, a surrogate measure of the levels of active KRAS.

KRAS^WT-RAF1 RBD complex = target: T2, KRAS^WT-RAF1 RBD complex (Homo sapiens, UniProt P01116); test: Intracellular RAS-RAF complex reporter assay (nanoBRET) in U2OS cells, KRAS^WT; type: cell-based; conditions: 4 hours
T2 construct: expressed in transfected cells; host or cells: U2OS
Method: A cellular assay was used to measure complexes between KRAS proteins and the RAS-binding domain (RBD) of the RAF1 kinase by nanoluciferase bioluminescence energy transfer (nanoBRET™) U2OS cells were seeded at confluence in the 3 mL of DMEM supplemented with 10% fetal bovine serum and 1% penicillin/streptomycin (approximately 1 million cells per well). […] The following day, Vivazine™ nanoluciferase substrate and compounds were added at the indicated concentration. After 4 hours of incubation, the emitted light at 460 and 618 nm was measured using a PerkinElmer Envision plate reader. The luminescence intensity at 618 nm relative to 460 nm is proportional to the number of complexes between the KRAS protein and the RBD of RAF1, a surrogate measure of the levels of active KRAS.

SMILES	synergy on cell viability (HSA synergy model) ([1]; AsPC-1, in combination with MRTX1133, 120 hours)	synergy on cell viability (HSA synergy model) ([1]; AsPC-1, in combination with pan KRAS-IN-1, 120 hours)	synergy on cell viability (HSA synergy model) [2]	synergy on cell viability (HSA synergy model) [3]	synergy on cell viability (HSA synergy model) ([4]; in combination with MRTX1133)	synergy on cell viability (HSA synergy model) ([4]; in combination with MRTX-282)	synergy on cell viability (HSA synergy model) [5]	RAS GTP hydrolysis in various RAS mutants in the presence of compound [6]	hydrolyzer class: RAS(ON) GTP hydrolysis rate relative to the intrinsic hydrolysis rate [7]	potency for inhibition of RAS-RAF complexes across multiple KRAS variants [8]	potency for inhibition of RAS-RAF complexes vs KRAS^WT, relative to the other KRAS variants (KRAS^WT-RAF1 RBD complex)
CCn1c(-c2cc(N3CCN(C)CC3)cnc2[C@H](C)OC)c2c3cc(ccc31)[C@@H]1C[C@H]1CC[C@H](NC(=O)[C@H]1[C@H](C)[C@@H]1C)C(=O)N1CCC[C@H](N1)C(=O)OCC(C)(C)C2 (atropisomer, axis not shown) [compound 6]	synergistic	synergistic	synergistic	synergistic	no synergy	no synergy	synergistic	–	–	–	–
CCn1c(-c2cc(N3CCN(C4CC4)CC3)cnc2[C@H](C)OC)c2c3cc(ccc31)-c1csc(n1)C[C@H](NC(=O)[C@H]1[C@@H]3COC[C@@H]31)C(=O)N1CCC[C@H](N1)C(=O)OCC(C)(C)C2 (atropisomer, axis not shown) [compound 8]	–	–	–	–	–	–	–	increased hydrolysis	8 (Compound E) Moderate	roughly similar potency	modestly lower potency
